The test system of data set [1] is cytoadherence of P. falciparum parasitised red cells to C32 melanoma cells. The experiment in a line: C32 melanoma cell cytoadherence assay with SNO-cysteine-treated parasitised red cells. Type of data set: cell-based, Plasmodium falciparum. As to conditions: Expt 5: JR strain, SNO-cysteine final concentration 5 mM, 40 minutes, parasitised red cells resuspended in 2% w/v borate.

The subject of a further data set is endothelial cells. Particulars: 0.2 mmol/l, 24 hours in conjunction with IL-1; cited from earlier work.
For a further data set, the system named is VCAM-1. As to conditions: 0.2 mmol/l, 24 hours in conjunction with IL-1; cited from earlier work.

The source of these data is patent US7179615B1 (priority 1997, dated 2007).

Turning to `N[C@@H](CSN=O)C(=O)O` [SNO-cysteine], in data set [1], the “binding (cytoadherence to C32 melanoma cells)” value is listed as 0%.

Consider `N[C@@H](CCC(=O)N[C@@H](CSN=O)C(=O)NCC(=O)O)C(=O)O` [SNO-glutathione], for which the endothelial toxicity entry in the data set with endothelial cells was “minimal endothelial toxicity”. Also, the “inhibition of VCAM-1” value in the data set with VCAM-1 was “maximal inhibition of VCAM-1”.
